The subject of test [1] is DU-145 prostate cancer cells. Put plainly: Effect on the proliferation of prostate cancer cells. The test is classed as cell-based. The settings on record: Homo sapiens, DU-145, 120 h; 5 days, Cyquant kit; n = 2. On the procedure: DU-145 prostate cancer cells were plated onto a 96-well dish, in a density of 2×10^3 cells/well in a MEM Eagles medium without phenol red. Such a medium comprises Earles' balanced salt, 1% antibiotic-antifungal agent, 2 mM glutamine, 0.1 mM nonessential amino acids, 1 mM sodium pyruvate and 10% carbon stripped FCS. The next day, the compound and vehicle (0.2% DMSO) were added, and the medium was refreshed every 48 hours. The cultivation was stopped 5 days later. Proliferation was analyzed using the above Cyquant kit.

Test [2] relates to MCF-7 cells or BG-1 cells. As to the kind of experiment: Effect on the proliferation of breast cancer cells (MCF-7 or BG-1 cells in nude mice). The test is classed as in vivo. Conditions: Mus musculus; n = 2. As to the method:
Using standard pharmacological experimental methods easily found in reference documents, the capabilities of the inventive compounds to treat and inhibit different types of malignant tumors or over-proliferation diseases can be evaluated.
Spayed athymic nu/nu (nude) mice were used. One day before the injection of tumor cells, a release-controlled pill containing 0.36-1.7 mg of β estradiol (60- or 90-day release) or a placebo was implanted into the animal. The pill was introduced into the endo-sculpture zone subcutaneously using a 10-scaled precise rotor. Next, 1×10^7 MCF-7 cells or 1×10^7 BG-1 cells were injected into breast tissues of the mice subcutaneously. The cells were mixed with matrigel with a same volume, and the latter was a liquid preparation of basilar membrane substrate, so as to facilitate tumor construction. One day after the implantation of the tumor cells (i.e. an inhibition protocol), or after the tumor had reached a certain volume (i.e. a treatment protocol), the tested compounds could be evaluated through administration. The saline containing the compound in a 1% Tween-80 vehicle was administered intraperitoneally or orally every day. The volumes of the tumors were evaluated every 3 or 7 days.

The test system of a further test is MCF-7/ERE. As to the kind of experiment: MCF-7/ERE anti-proliferation assay (ERE-tk-luciferase). Conditions: Homo sapiens, MCF7; n = 2. It is filed as cell-based. As to the method: Stock solutions (usually, 0.1 M) of the test compounds were prepared in DMSO, and then diluted by 10-100 folds in DMSO, so as to achieve the working solutions with a concentration of 1-10 mM. The stock solutions (in DMSO) were stored at 4° C. (0.1 M) or −20° C. (<0.1 M). MCF-7 cells were passaged twice per week using a growth medium (i.e. a D-MEM/F-12 medium). The cells were kept in a 37° C., aerated flask in an incubator filled with 5% CO2/95% humid air. One day before the treatment, a 96-well titration plate was coated with the cells in the medium, 25000 cells/well, and then cultured at 37° C., overnight.
The cells were transfected with 50 μL/well of 1/10 diluted adenovirus 5-ERE-tk-luciferase in the test medium (i.e. a D-MEM/F-12 medium without phenolsulfonphthalein) for 2 h. Then each well was washed once with 150μλ of the test medium. At last, the cells were divided into several replicates and treated at 37° C. for 24 h, wherein 8 wells were treated with 150μλ/well vehicle (≦0.1% v/v DMSO) or the compound diluted by ≧1000 folds with the test medium.
A primary screen of the test compounds was conducted with a single dose of 1 μM, wherein the test compound was alone (an agonist mode) or in combination with 0.1 nM 17β estradiol (EC80: an antagonist mode). Each 96-well plate also contained a vehicle control group (0.1% v/v DMSO) and an agonist control group (0.1 or 1 nM 17β estradiol). In the agonist and/or antagonist mode, a dose-response experiment was conducted for the active compounds which were increased by logarithm of 10^−14˜10^−5 M. Based on these dose-response curves, EC50 and IC50 values were determined respectively. The final titration wells in each treatment groups contained 5 μL of 3×10^−5 M ICC-182780 (10^−6 M final concentration), as an ER antagonist control.
After the treatment, the cells were lysed in 25 μL/well of 1× cell-culture lytic agent (Promega Corporation) for 15 min. Cell lysate (20 μL) was transferred into a 96-well photometer plate. The luciferase activity was measured with 100 μL/well of the substrate for luciferase (Promega Corporation) in MicroLumat LB 96P photometer (EG&G Berthold). Before adding the substrate, a background measurement was performed for each well for 1 s. After adding the substrate, the luciferase activity was measured after 1 s delay and within 10 s. The data obtained from the photometer were analyzed by JMF software (SAS Institute). Using this program, the background reading of the luciferase activity in each well was subtracted, and then the average and standard deviation were calculated for each group of treatment.
The above luciferase data were subjected to a logarithmic transformation, and the weights of the transformed results which were far away from the median was reduced using Huber M-estimator. The transformed and weighted data were analyzed using JMF software, so as to conduct a one-way ANOVA (D test). The results of the compound treatment groups were compared with that of a vehicle control group in the agonist mode, or with that of a positive agonist control group in the antagonist mode (0.1 nM 17β-estradiol). […] In addition, EC50 and/or IC50 values were determined from a nonlinear dose-response curve using JMF software.

The test system of test [3] is Osteosarcoma Cells U2OS-EGFP-4A12G. Put plainly: Effect on the proliferation of osteosarcoma cells U2OS-EGFP-4A12G (MTT). It is filed as cell-based. The settings on record: n = 3. On the procedure:
Cells in the logarithmic growth phase were digested with trypsin, counted with trypan blue, and prepared into a cellular suspension with a density of 1×10^4 cells/mL. The suspension was seeded in a 96-well plate, 200 μL/well, about 2×10^3 cells/well, and pre-cultured for 24 h. […] A concentration of 0 mg/mL was used as a negative control group. After subsequent cultivatation for 0 h, 12 h, 24 h or 48 h, 20 μL MTT solution (5 mg/mL) was added to each well. The cultivation was terminated after another 4 h incubation. The supernatant in each well was sucked out carefully, and 150 μL of dimethyl sulfoxide (DMSO) was added to each well. The plate was shaken for 10 min, so that formazan was dissolved thoroughly. The absorption value (A value) of each well was measured using an enzyme linked immunosorbent detector, at a selected wavelength of 490 nm. The measurement was repeated for 5 times.

For orientation: IC50 means the point on the concentration scale where inhibition reaches its midpoint.

Turning to `O=C(c1ccc(OCC(=O)N2CCOCC2)cc1)c1oc2cc3c(cc2c1-c1ccc(O)cc1)CCCO3` [2-[4-(morpholine-2-oxo-ethoxy)benzoyl]-3-(4-hydroxyphenyl)-6,7-dihydrogen-5H-furo[3,2-g]chromene], the concentration for half-maximal inhibition (IC50) in test [1] is 23.7 µM; in test [2], 46.7 µM; in the test with MCF-7/ERE it was 4.9 µM.

With `CCN(CC)CCOc1ccc(C(=O)c2oc3cc4c(cc3c2-c2ccc(O)cc2)CCCO4)cc1` [Example 56, 2-[4-(diethylaminoethoxy)benzoyl]-3-(4-hydroxyphenyl)-6,7-dihydrogen-5H-furo[3,2-g]chromene], the half-maximal inhibitory concentration (IC50) worked out at 17.1 µM in test [1], 22.1 µM in test [2], 13.5 µM with MCF-7/ERE and 14.9 µM in test [3].

With `CN(C)CCOc1ccc(C(=O)c2oc3cc4c(cc3c2-c2ccc(O)cc2)CCCO4)cc1` [Example 58, 2-[4-(dimethylaminoethoxy)benzoyl]-3-(4-hydroxyphenyl)-6,7-dihydrogen-5H-furo[3,2-g]chromene], the results for the IC50 (in test [1]; in test [2]; in the test with MCF-7/ERE) were 43.6 µM, 4.6 µM and 22.9 µM, respectively.

Take `O=C(c1ccc(OCC(=O)N2CCCCC2)cc1)c1oc2cc3c(cc2c1-c1ccc(O)cc1)CCCO3` [Example 60, 2-[4-(piperidine-2-oxo-ethoxy)benzoyl]-3-(4-hydroxyphenyl)-6,7-dihydrogen-5H-furo[3,2-g]chromene]: the figures for the IC50 (in test [1]; in test [2]; in the test with MCF-7/ERE) were 14.5 µM, 11.5 µM and 5.6 µM, respectively.

`CCN(CC)C(=O)COc1ccc(C(=O)c2oc3cc4c(cc3c2-c2ccc(O)cc2)CCCO4)cc1` [Example 62, 2-[4-(diethylamino-2-oxo-ethoxy)benzoyl]-3-(4-hydroxyphenyl)-6,7-dihydrogen-5H-furo[3,2-g]chromene]: the IC50 was 35.2 µM in test [1], 25.2 µM in test [2] and 42.3 µM with MCF-7/ERE.

`CN(C)C(=O)COc1ccc(C(=O)c2oc3cc4c(cc3c2-c2ccc(O)cc2)CCCO4)cc1` [Example 64, 2-[4-(dimethylamino-2-oxo-ethoxy)benzoyl]-3-(4-hydroxyphenyl)-6,7-dihydrogen-5H-furo[3,2-g]chromene]: the values for the IC50 (in test [1]; in test [2]; with MCF-7/ERE) were 8.5 µM, 5.6 µM and 21.8 µM, respectively.

Source of the values: US8877949B2, “Furo[3,2-g]chromene compounds and uses thereof” (Shenyang Pharmaceutical University, priority 2010, dated 2014).
